{"source": "patent US20110217300A1", "about": "“Quinazolinone Compounds and Methods of Use Thereof” (priority 2007, published 2011)", "key": {"NCI-H661": {"tested_on": "NCI-H661", "experiment": "MTS cell viability assay", "type": "cell-based", "details": "Homo sapiens, Large cell Lung Cancer", "description": "(§1) Cell viability was determined by measuring the activity of dehydrogenase enzymes in metabolically active cells using a tetrazolium compound, MTS. The assay was performed as described in Promega Technical Bulletin No. 169 (CellTiter 96 Aqueous Non-Radioactive Cell Proliferation Assay). Two human cancer cell lines were assayed (see, Table 1). Cells were maintained at 37° C. and 5% CO2 in DMEM media (4.5 g/L glucose) supplemented with 10% heat-inactivated FBS, 10 mM L-glutamine, and 10 mM Hepes pH 7.5. Briefly, cells were seeded in 96-well plates as set forth in Table 1 and incubated for 16-24 hours. Candidate compounds were serially diluted in DMSO, further diluted in cell culture media, and then added to cells (final DMSO concentration of 0.33%). Cells were incubated in the presence of candidate compound for 72 hours. MTS stock solution (MTS 2 gm/L, PMS […] in PBS) was added to the cells (final concentration MTS […] and PMS 7.67 mg/L) and incubated for 4 hours. SDS was added to a final concentration of 1.4% and absorbance at 490 nm was measured within two hours using a plate reader. […] GI50 values were given in Table 2 for the compounds listed. The Compound Numbers in Table 2 correspond to the numbers listed parenthetically in the Example titles. Where multiple measurements were made by different technicians, both values are given.\n(§2) Cell viability was determined for N-(3-amino-propyl)-3-chloro-N—[(R)-1-(7-chloro-4-oxo-3-phenylamino-3,4-dihydro-quinazolin-2-yl)-but-3-ynyl]-2-fluoro-benzamide (compound I of Table 2). The cell viability assay of Example 105 was used. GI50 was determined using a variety of cell lines. Cells were plated at 100-5000 cells per well. At least 2 replicates were performed. Where multiple measurements were made by different technicians, both values are given."}, "PLC/PRF/5": {"tested_on": "PLC/PRF/5", "experiment": "MTS cell viability assay", "type": "cell-based", "details": "Homo sapiens, liver", "description": "as §1, §2"}, "LS411N": {"tested_on": "LS411N", "experiment": "MTS cell viability assay", "type": "cell-based", "details": "Homo sapiens, LS-411N, colon", "description": "as §1, §2"}, "HCT-15": {"tested_on": "HCT-15", "experiment": "MTS cell viability assay", "type": "cell-based", "details": "Homo sapiens, colon", "description": "as §1, §2"}, "HT-1080": {"tested_on": "HT-1080", "experiment": "MTS cell viability assay", "type": "cell-based", "details": "Homo sapiens, Fibrosarcoma", "description": "as §1, §2"}, "SK-LMS-1": {"tested_on": "SK-LMS-1", "experiment": "MTS cell viability assay", "type": "cell-based", "details": "Leiomyosarcoma", "description": "as §1, §2"}, "SW480": {"tested_on": "SW480", "experiment": "MTS cell viability assay", "type": "cell-based", "details": "colon", "description": "as §1, §2"}, "Kato III": {"tested_on": "Kato III", "experiment": "MTS cell viability assay", "type": "cell-based", "details": "Homo sapiens, Gastric Carcinoma", "description": "as §1, §2"}, "SKMES-1": {"tested_on": "SKMES-1", "experiment": "MTS cell viability assay", "type": "cell-based", "details": "Homo sapiens, SK-MES-1, Squamous cell carcinoma", "description": "as §1, §2"}, "SNU-1": {"tested_on": "SNU-1", "experiment": "MTS cell viability assay", "type": "cell-based", "details": "Homo sapiens, SNU1, Stomach", "description": "as §1, §2"}, "HCT-116": {"tested_on": "HCT-116", "experiment": "MTS cell viability assay", "type": "cell-based", "details": "Homo sapiens, colon", "description": "as §1, §2"}, "A375": {"tested_on": "A375", "experiment": "MTS cell viability assay", "type": "cell-based", "details": "skin", "description": "as §1, §2"}, "KG-1": {"tested_on": "KG-1", "experiment": "MTS cell viability assay", "type": "cell-based", "details": "Homo sapiens, AML", "description": "as §1, §2"}, "HEP-3B": {"tested_on": "HEP-3B", "experiment": "MTS cell viability assay", "type": "cell-based", "details": "Homo sapiens, Hep3B, liver", "description": "as §1, §2"}, "AN3CA": {"tested_on": "AN3CA", "experiment": "MTS cell viability assay", "type": "cell-based", "details": "Homo sapiens, AN3-CA, endometrial", "description": "as §1, §2"}, "DU145": {"tested_on": "DU145", "experiment": "MTS cell viability assay", "type": "cell-based", "details": "prostate", "description": "as §1, §2"}, "A-375": {"tested_on": "A-375", "experiment": "MTS cell viability assay", "type": "cell-based", "details": "Homo sapiens, Malignant melanoma", "description": "as §1, §2"}, "MDA-MB-231": {"tested_on": "MDA-MB-231", "experiment": "MTS cell viability assay", "type": "cell-based", "details": "Breast adenocarcinoma", "description": "as §1, §2"}, "LoVo": {"tested_on": "LoVo", "experiment": "MTS cell viability assay", "type": "cell-based", "details": "Homo sapiens, Colorectal Carcinoma", "description": "as §1, §2"}, "RT-112": {"tested_on": "RT-112", "experiment": "MTS cell viability assay", "type": "cell-based", "details": "Human urinary bladder cell carcinoma", "description": "as §1, §2"}, "CAKI-2": {"tested_on": "CAKI-2", "experiment": "MTS cell viability assay", "type": "cell-based", "details": "Homo sapiens, kidney", "description": "as §1, §2"}, "CAKI-1": {"tested_on": "CAKI-1", "experiment": "MTS cell viability assay", "type": "cell-based", "details": "Homo sapiens, kidney", "description": "as §1, §2"}, "NCI-H1993": {"tested_on": "NCI-H1993", "experiment": "MTS cell viability assay", "type": "cell-based", "details": "Lung adenocarcinoma", "description": "as §1, §2"}, "NCI-H1299": {"tested_on": "NCI-H1299", "experiment": "MTS cell viability assay", "type": "cell-based", "details": "Homo sapiens, Non-small cell lung carcinoma", "description": "as §1, §2"}, "LS174T": {"tested_on": "LS174T", "experiment": "MTS cell viability assay", "type": "cell-based", "details": "Homo sapiens, Colorectal Carcinoma", "description": "as §1, §2"}, "SNU-16": {"tested_on": "SNU-16", "experiment": "MTS cell viability assay", "type": "cell-based", "details": "Homo sapiens, Gastric Carcinoma", "description": "as §1, §2"}, "THP-1": {"tested_on": "THP-1", "experiment": "MTS cell viability assay", "type": "cell-based", "details": "Homo sapiens, Acute monocytic leukemia", "description": "as §1, §2"}, "WM-266.4": {"tested_on": "WM-266.4", "experiment": "MTS cell viability assay", "type": "cell-based", "details": "Homo sapiens, WM 266-4, Melanoma", "description": "as §1, §2"}, "DU145 xenograft": {"tested_on": "DU145 xenograft", "experiment": "Xenograft model", "type": "in vivo, mice", "details": "DU145, Prostate; procedures and dosages of Examples 106-108"}}}
{"smiles": "C#CC[C@H](c1nc2cc(Cl)ccc2c(=O)n1Nc1ccccc1)N(CCCN)C(=O)c1cccc(Cl)c1F", "note": "[Compound 1, N-(3-Amino-propyl)-3-chloro-N—[(R)-1-(7-chloro-4-oxo-3-phenylamino-3,4-dihydro-quinazolin-2-yl)-but-3-ynyl]-2-fluoro-benzamide]", "values": [{"measurement": "GI50", "setting": "NCI-H661", "value": 109, "unit": "nM"}, {"measurement": "GI50", "setting": "PLC/PRF/5", "value": 135, "unit": "nM"}, {"measurement": "GI50", "setting": "LS411N", "value": 237, "unit": "nM"}, {"measurement": "GI50", "setting": "HCT-15", "value": 3020, "unit": "nM"}, {"measurement": "GI50", "setting": "HT-1080", "value": 149, "unit": "nM"}, {"measurement": "GI50", "setting": "SK-LMS-1", "value": 2210, "unit": "nM"}, {"measurement": "GI50", "setting": "SW480; Homo sapiens, SW480, SW480", "value": 1270, "unit": "nM"}, {"measurement": "GI50", "setting": "SW480; SW480, listed as I", "value": 1220, "unit": "nM"}, {"measurement": "GI50", "setting": "Kato III", "value": 202, "unit": "nM"}, {"measurement": "GI50", "setting": "SKMES-1", "value": 1000, "unit": "nM"}, {"measurement": "GI50", "setting": "SNU-1", "value": 552, "unit": "nM"}, {"measurement": "GI50", "setting": "HCT-116", "value": 74, "unit": "nM"}, {"measurement": "GI50", "setting": "A375; A375, listed as I", "value": 752, "unit": "nM"}, {"measurement": "GI50", "setting": "A375; Homo sapiens, A-375, A375", "value": 405, "unit": "nM"}, {"measurement": "GI50", "setting": "KG-1", "value": 1720, "unit": "nM"}, {"measurement": "GI50", "setting": "HEP-3B", "value": 773, "unit": "nM"}, {"measurement": "GI50", "setting": "AN3CA", "value": 201, "unit": "nM"}, {"measurement": "GI50", "setting": "DU145; DU145, listed as I", "value": 304, "unit": "nM"}, {"measurement": "GI50", "setting": "DU145; Homo sapiens, DU-145, DU145", "value": 303, "unit": "nM"}, {"measurement": "GI50", "setting": "A-375", "value": 766, "unit": "nM"}, {"measurement": "GI50", "setting": "MDA-MB-231; Homo sapiens, MDA-MB-231, MDA-MB-231", "value": 359, "unit": "nM"}, {"measurement": "GI50", "setting": "MDA-MB-231; MDA-MB-231, listed as I", "value": 249, "unit": "nM"}, {"measurement": "GI50", "setting": "LoVo", "value": 359, "unit": "nM"}, {"measurement": "GI50", "setting": "RT-112", "value": 53, "unit": "nM"}, {"measurement": "GI50", "setting": "CAKI-2", "value": 4240, "unit": "nM"}, {"measurement": "GI50", "setting": "CAKI-1", "value": 2170, "unit": "nM"}, {"measurement": "GI50", "setting": "NCI-H1993; Homo sapiens, NCI-H1993, NCI-H1993", "value": 2420, "unit": "nM"}, {"measurement": "GI50", "setting": "NCI-H1993; NCI-H1993, listed as I", "value": 1660, "unit": "nM"}, {"measurement": "GI50", "setting": "NCI-H1299", "value": 549, "unit": "nM"}, {"measurement": "GI50", "setting": "LS174T", "value": 796, "unit": "nM"}, {"measurement": "GI50", "setting": "SNU-16", "value": 136, "unit": "nM"}, {"measurement": "GI50", "setting": "THP-1", "value": 226, "unit": "nM"}, {"measurement": "GI50", "setting": "WM-266.4", "value": 2300, "unit": "nM"}, {"measurement": "Xenograft Outcome (approximate percent growth inhibition)", "setting": "DU145 xenograft", "value": "~75", "unit": "%"}]}
